Experimental data from PMC11079024, “Identification of a family of species-selective complex I inhibitors as potential anthelmintics” (Nature Communications, 2024).
Values joined by “and” are separate entries in the source; they are usually repeats but may differ in a detail not shown here. Identical values can stand only once. Like-named read-outs stand apart in the source and are kept apart here.

Target: C. briggsae complex I (Caenorhabditis briggsae, UniProt A8X476+A8XFG2+Q8HEC4)
Assay: In vitro complex I activity assay, C. briggsae mitochondria
Format: biochemical
Conditions: for remaining activity at 0.06 µM / remaining activity at 0.13 µM / remaining activity at 0.313 µM / remaining activity at 0.625 µM / remaining activity at 1.5 µM / remaining activity at 3 µM / remaining activity at 15 µM / remaining activity at 37.5 µM / remaining activity at 75 µM / remaining activity at 0.0001 µM / remaining activity at 0.0005 µM / remaining activity at 0.001 µM / remaining activity at 0.0025 µM / remaining activity at 0.005 µM / remaining activity at 0.025 µM / remaining activity at 0.063 µM / remaining activity at 0.125 µM / in vitro complex I activity relative to solvent control / remaining activity at 0.013 µM: C. briggsae mitochondria; for remaining activity at 0.06 µM / remaining activity at 0.13 µM / remaining activity at 0.313 µM / remaining activity at 0.625 µM / remaining activity at 1.5 µM / remaining activity at 3 µM / remaining activity at 15 µM / remaining activity at 37.5 µM / remaining activity at 75 µM / remaining activity at 0.0001 µM / remaining activity at 0.0005 µM / remaining activity at 0.001 µM / remaining activity at 0.0025 µM / remaining activity at 0.005 µM / remaining activity at 0.025 µM / remaining activity at 0.063 µM / remaining activity at 0.125 µM / remaining activity at 0.013 µM: read-out: in vitro complex I activity relative to solvent control; for IC50: purified mitochondria
Protocol: Mitochondria were isolated from the following free-living nematode strains: C. elegans—N2, CB3474, ECA882, ECA917, ECA1075, ECA1080; C. briggsae—AF16; P. pacificus—PS312; and P. hermaphrodita—B178. With the exception of the P. hermaphrodita strain B178, adult worms of each strain were grown in bulk through liquid culture to obtain mitochondria in sufficient quantities. Due to poor growth in liquid media, mixed stage populations of P. hermaphrodita were washed off and collected from NGM plates seeded with OP50. The isolation of mitochondria from all free-living nematode strains followed the protocol previously outlined in Burns et al.[24]. In brief, a 1 L saturated culture of E. coli HB101 was concentrated 20-fold in 50 mL complete S-medium. ~500,000 L1 worms synchronized from an embryo preparation performed the day prior were added to the S-media/HB101 suspension and grown to adulthood over the course of 3.5 days at 20 °C with shaking at 165 rpm. Following growth, worms were collected in 10 ×15 mL conical tubes and washed 7 times in M9 buffer. Worm suspensions were then combined into a single 15 mL conical tube and diluted to a final volume of 15 mL with M9 buffer. 1 mL aliquots of worm suspension were then distributed to 15 × 1.5 mL screw-cap microcentrifuge tubes and were pelleted at 500 g for 1 min. Excess M9 was aspirated without disturbing the worm pellet. 600 μL ice-cold isolate buffer A (250 mM sucrose, 10 mM Tris (pH 7.5), 1 mM EDTA, 1 mM PMSF (freshly prepared)) and 300 μL cold glass beads were then added to each tube. Tubes were incubated on ice for 10 min, and the worms were then lysed by bead beating (6 x 30 s, with 1 min cooling intervals). Tubes containing worm lysate were centrifuged at 1,000 g for 10 min at 4 °C and the supernatant was transferred to 15 new microcentrifuge tubes on ice. The tubes were centrifuged a second time at 1,000 g for 10 min at 4 °C and the supernatant was once again transferred to 15 new microcentrifuge tubes on ice. These tubes were then centrifuged at 16,000 g for 10 min at 4 °C. The resulting mitochondrial pellet was washed twice by re-suspension in 300 μL of ice-cold isolate buffer B (250 mM sucrose, 10 mM Tris (pH 7.5), 1 mM EDTA). Following the final wash, isolation buffer was aspirated from each tube and the pellets were flash-frozen in ethanol/dry ice and stored at −80 °C until needed.
The enzymatic activities of individual ETC complexes (I-IV) were assessed spectrophotometrically in isolated mitochondria using a Varioskan LUX Multimode plate reader (ThermoFisher Scientific). Mitochondrial pellets previously isolated were thawed on ice and resuspended in ice-cold isolation buffer (250 mM sucrose, 10 mM Tris (pH 7.5), 1 mM EDTA). The BCA assay (Walker, 1994) was used to quantify the protein concentration of mitochondria suspensions; solutions were diluted to a concentration of 0.2 mg/mL for use in all assays. For the complex I assay, mitochondria pellets were freeze-thawed on ice three times to increase enzyme accessibility. […] 20 μL mitochondria suspension was then added/mixed with a pipette to initiate the reaction. Immediately following the addition of mitochondria, absorbance was measured (complex I and II: 600 nm; complex III and IV: 550 nm) in 30 s intervals over 15 min. Enzymatic activity was determined in each reaction by plotting absorbance versus time and calculating the slope of the curve during the initial linear phase of the reaction. […] Percent activity of each complex was calculated by dividing the enzyme-specific activity of each well by the enzyme-specific activity of the corresponding solvent controls.
Chemical solutions were prepared in complex I assay buffer composed of 25 mM KPi buffer (pH 7.5), 3 mg/mL bovine serum albumin (BSA), 80 μM NADH, 60 μM decylubiquinone, 160 μM DCIP, 2 μM antimycin A and 2 mM KCN.
For preliminary screens of hit compounds, compounds were screened at 100 μM; data are the average of at least three biological replicates.

C. briggsae complex I, sequence (A8X476 31-482): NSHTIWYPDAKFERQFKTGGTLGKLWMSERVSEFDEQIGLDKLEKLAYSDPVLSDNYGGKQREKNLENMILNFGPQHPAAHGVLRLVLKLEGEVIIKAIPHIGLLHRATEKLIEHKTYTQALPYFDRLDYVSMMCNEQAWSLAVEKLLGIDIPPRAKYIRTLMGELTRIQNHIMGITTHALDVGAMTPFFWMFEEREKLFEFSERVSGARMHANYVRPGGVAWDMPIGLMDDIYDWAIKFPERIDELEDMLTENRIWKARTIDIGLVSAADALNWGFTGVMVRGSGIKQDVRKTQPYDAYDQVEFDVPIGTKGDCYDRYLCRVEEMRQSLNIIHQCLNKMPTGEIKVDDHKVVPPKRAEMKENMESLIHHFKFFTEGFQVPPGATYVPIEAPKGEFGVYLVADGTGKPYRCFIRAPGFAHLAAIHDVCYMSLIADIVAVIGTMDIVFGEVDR
C. briggsae complex I, sequence (A8XFG2 17-199): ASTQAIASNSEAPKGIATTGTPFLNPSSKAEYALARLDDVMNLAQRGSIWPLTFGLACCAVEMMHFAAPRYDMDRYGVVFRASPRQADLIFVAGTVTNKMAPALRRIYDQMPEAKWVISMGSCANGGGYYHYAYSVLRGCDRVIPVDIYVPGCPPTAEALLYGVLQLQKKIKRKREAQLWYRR
C. briggsae complex I, sequence (Q8HEC4 whole entry): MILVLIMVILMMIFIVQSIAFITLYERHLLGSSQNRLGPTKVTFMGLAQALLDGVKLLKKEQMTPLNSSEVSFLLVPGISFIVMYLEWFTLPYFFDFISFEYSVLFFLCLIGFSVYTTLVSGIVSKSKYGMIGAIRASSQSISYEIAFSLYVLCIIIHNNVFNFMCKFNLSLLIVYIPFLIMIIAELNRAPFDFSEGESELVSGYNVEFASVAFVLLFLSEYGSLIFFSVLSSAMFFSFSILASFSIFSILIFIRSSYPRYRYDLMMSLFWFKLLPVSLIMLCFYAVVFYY

Row | SMILES | remaining activity at 0.0001 µM (0.0001 µM, Mean) | remaining activity at 0.0001 µM (0.0001 µM, single replicate) | remaining activity at 0.0005 µM (0.0005 µM, Mean) | remaining activity at 0.0005 µM (0.0005 µM, single replicate) | remaining activity at 0.001 µM (0.001 µM, Mean) | remaining activity at 0.001 µM (0.001 µM, single replicate) | remaining activity at 0.0025 µM (0.0025 µM, Mean) | remaining activity at 0.0025 µM (0.0025 µM, single replicate) | remaining activity at 0.005 µM (0.005 µM, Mean) | remaining activity at 0.025 µM (0.025 µM, Mean) | remaining activity at 0.063 µM (0.063 µM, Mean) | remaining activity at 0.125 µM (0.125 µM, Mean) | remaining activity at 0.313 µM (0.313 µM, Mean) | remaining activity at 0.625 µM (0.625 µM, Mean) | remaining activity at 1.5 µM (1.5 µM, Mean) | remaining activity at 3 µM (3 µM, Mean) | remaining activity at 15 µM (15 µM, Mean) | remaining activity at 37.5 µM (37.5 µM, Mean) | remaining activity at 75 µM (75 µM, Mean) | IC50 | further results
1 | CC(C)Cc1ccc(C(C)c2nc3ccccc3n2C)cc1 (stereo not shown) [NPD8790] | 91.5% | 87.3% | 96.4% | 99.9% | 102% | 99.6% | 115% | 108% | 119% | 109% | 103% | 92% | 85.6% | 74.2% | 61.1% | 43.1% | 16% | 11.7% | 9.21% | 1600 nM | remaining activity at 0.06 µM (Mean of replicates): 103%; remaining activity at 0.06 µM (single replicate): 95.7%; remaining activity at 0.13 µM (Mean of replicates): 92%; remaining activity at 0.13 µM (single replicate): 86.2%; remaining activity at 0.313 µM (0.313 µM, Mean of replicates): 85.6%; remaining activity at 0.313 µM (0.313 µM, single replicate): 76.1%; remaining activity at 0.625 µM (0.625 µM, Mean of replicates): 74.2%; remaining activity at 0.625 µM (0.625 µM, single replicate): 81.9%; remaining activity at 1.5 µM (1.5 µM, Mean of replicates): 61.1%; remaining activity at 1.5 µM (1.5 µM, single replicate): 70%; remaining activity at 3 µM (3 µM, Mean of replicates): 43.1%; remaining activity at 3 µM (3 µM, single replicate): 52.6%; remaining activity at 15 µM (15 µM, Mean of replicates): 16%; remaining activity at 37.5 µM (37.5 µM, Mean of replicates): 11.7%; remaining activity at 75 µM (75 µM, Mean of replicates): 9.21%; remaining activity at 0.063 µM (0.063 µM, single replicate): 95.7%; remaining activity at 0.125 µM (0.125 µM, single replicate): 86.2%
2 | Cc1nc2ccccc2n1Cc1ccc(Cl)cc1 [STK697993] | 84.5% | 88.5% | 92.6% | 89.6% | 98.3% | 106% | 104% | 106% | 99.2% | 82.5% | 54.5% | 33.3% | 12.2% | 5.29% | 3.62% | 5.17% | 7.49% | 5.41% | 4.07% | 73.7 nM | in vitro complex I activity relative to solvent control (0.0001 µM, single replicate): 91.655% and 73.328%; in vitro complex I activity relative to solvent control (0.0005 µM, single replicate): 92.151% and 96.046%; in vitro complex I activity relative to solvent control (0.001 µM, single replicate): 98.678% and 90.340%; in vitro complex I activity relative to solvent control (0.0025 µM, single replicate): 101.880% and 103.212%; in vitro complex I activity relative to solvent control (0.005 µM, single replicate): 95.872% and 91.749%; remaining activity at 0.005 µM (0.005 µM, single replicate): 110%; remaining activity at 0.013 µM (0.013 µM, Mean): 91%; in vitro complex I activity relative to solvent control (0.013 µM, single replicate): 83.705% and 87.377%; remaining activity at 0.013 µM (0.013 µM, single replicate): 102%; in vitro complex I activity relative to solvent control (0.025 µM, single replicate): 95.007% and 79.112% and 73.336%; in vitro complex I activity relative to solvent control (0.063 µM, single replicate): 60.174% and 66.771% and 36.409%; in vitro complex I activity relative to solvent control (0.125 µM, single replicate): 36.143% and 47.895% and 15.798%; in vitro complex I activity relative to solvent control (0.313 µM, single replicate): 16.180% and 20.382% and 0.000%; in vitro complex I activity relative to solvent control (0.625 µM, single replicate): 0.000% and 15.885%; in vitro complex I activity relative to solvent control (1.5 µM, single replicate): 0.000% and 10.874%; in vitro complex I activity relative to solvent control (3 µM, single replicate): 0.000% and 15.522%; in vitro complex I activity relative to solvent control (15 µM, single replicate): 0.019% and 20.437% and 1.999%; in vitro complex I activity relative to solvent control (37.5 µM, single replicate): 0.000% and 16.226%; in vitro complex I activity relative to solvent control (75 µM, single replicate): 3.330% and 6.641% and 2.225%
